One data set relates to A2780. Put plainly: Anti-proliferative effect (CellTiter-Glo, 72 h), A2780. As to conditions: A2780 cells, median, read-out: IC50 antiproliferation assay A2780 [M] (median). Type of data set: cell-based. The method in brief: (§1)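 Anti-proliferative activity is derived from ATP-based luminescence (CellTiter-Glo) in cells exposed to compound for 72 h at 37 °C, set against a time zero plate read at seeding.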

Data set [1] deals with SUDHL10. Put plainly: Induction of cytotoxicity (CellTiter-Glo, 5 h), SUDHL10. Particulars: read-out: Cytotox SUDHL10 [M] (median), SUDHL10 cells, cytotoxicity induction, CellTiter-Glo, median. (Cellular ATP, detected with luciferase, serves as a proxy for viable cell number.)
Data set [2] deals with SUDHL5. The experiment in a line: Anti-proliferative effect (CellTiter-Glo, 72 h), SUDHL5. The data set is classed as cell-based. As to conditions: SUDHL5 cells, antiproliferation, median, read-out: Antiproli SUDHL5 [M] (median). An outline of the steps: as §1
For data set [3], the system named is SUDHL10. Put plainly: Induction of caspase-3/7 activity (Caspase-Glo 3/7), SUDHL10. The data set is classed as cell-based. Particulars: caspase-3/7 induction, SUDHL10 cells, 3 h treatment; median. An outline of the steps: (§2)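 Caspase-Glo 3/7 luminescence measured after 3 h compound exposure at 37 °C in SUDHL10 and SUDHL5 cells. EC50 values come from background-corrected signals, with curve bottom set to 1 and plateau set to maximal induction by the reference compound.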

The subject of data set [4] is SUDHL5. The experiment in a line: Induction of cytotoxicity (CellTiter-Glo, 5 h), SUDHL5. Particulars: read-out: Cytotox SUDHL5 [M] (median), SUDHL5 cells, cytotoxicity induction, CellTiter-Glo, median.
The subject of data set [5] is SUDHL10. Put plainly: Anti-proliferative effect (CellTiter-Glo, 72 h), SUDHL10. Type of data set: cell-based. As to conditions: SUDHL10 cells, antiproliferation, median, read-out: Antiproli SUDHL10 [M] (median). The method in brief: as §1
The subject of data set [6] is SUDHL5. The experiment in a line: Induction of caspase-3/7 activity (Caspase-Glo 3/7), SUDHL5. The data set is classed as cell-based. As to conditions: caspase-3/7 induction, SUDHL5 cells, 3 h treatment; median. The method in brief: as §2
The next data set addresses MCL-1 (Homo sapiens, UniProt Q07820). The experiment in a line: Protein-protein interaction assay MCL-1/Noxa BH3 peptide (MCL-1 assay), TR-FRET. Particulars: MBP-MCL-1 / Noxa BH3-derived peptide, median. Type of data set: binding. The method in brief: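 MBP-MCL-1 (1 nM final) was preincubated 10 min at 22 °C with compounds (11 concentrations, 0.1 nM–20 μM, duplicates) in Tris pH 7 buffer with NaCl, KF, Tween-20, DTT and BGG. After 1 h at 22 °C in the dark plus overnight at 4 °C, anti-MBP Eu-cryptate/streptavidin-XL665 TR-FRET was read; IC50 came from a 4-parameter fit.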
(Time-resolved FRET reads energy transfer from a long-lived donor to a nearby acceptor.)

Counter-ions that a name gives are not always drawn.

Sequence of MCL-1 (Q07820 whole entry): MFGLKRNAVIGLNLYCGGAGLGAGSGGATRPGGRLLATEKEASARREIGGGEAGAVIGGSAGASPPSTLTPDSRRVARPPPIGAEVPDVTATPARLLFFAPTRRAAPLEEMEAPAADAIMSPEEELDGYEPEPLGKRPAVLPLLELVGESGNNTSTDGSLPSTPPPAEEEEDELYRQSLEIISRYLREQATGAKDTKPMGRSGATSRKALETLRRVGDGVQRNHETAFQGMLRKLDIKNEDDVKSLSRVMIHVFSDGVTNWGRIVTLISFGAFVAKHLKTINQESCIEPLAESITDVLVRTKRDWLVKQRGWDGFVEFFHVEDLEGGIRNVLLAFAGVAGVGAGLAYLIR

In general, EC50 refers to the concentration at which the effect is half-maximal. A lower EC50 goes with greater potency. In the case of `Cn1nc(CCN2CCOCC2)c2c1COCCCCn1c(C(=O)O)c(CCCOc3cccc4ccccc34)c3cccc-2c31` (single isomer, unassigned; enantiomer 2) [Example 152, 1-methyl-3-(2-(morpholin-4-yl)ethyl-7-[3-(naphthalen-1-yloxy)propyl]-11,10,11,12,13,15-hexahydropyrazolo[4′,3′:9,10][1,6]oxazacycloundecino[8,7,6-hi]indole-8-carboxylic acid-N-ethylethanamine Salt (Enantiomer 2)], the IC50 was over 3.3e-05 M with A2780; over 3.3e-05 M in the data set with SUDHL10 [1] (5 h incubation); over 3.3e-05 M with SUDHL5 [2] (72 h incubation); over 3.3e-05 M in the data set with SUDHL5 [4] (5 h incubation); 1.76e-05 M in the data set on SUDHL10 [5] (72 h incubation); 0.379 µM at MCL-1. Besides, the EC50 in the data set on SUDHL10 [3] and in the data set on SUDHL5 [6] was over 33 µM throughout.
Take `Cc1nn(CC(F)(F)F)c2c1-c1cccc3c(CCCOc4cccc5c4CCCC5)c(C(=O)O)n(c13)CCCCOC2` (single isomer, unassigned; enantiomer 2) [Example 163, 3-methyl-7-[3-(5,6,7,8-tetrahydronaphthalen-1-yloxy)propyl]-1-(2,2,2-trifluoroethyl)-1,10,11,12,13,15-hexahydropyrazolo[4′,3′:9,10][1,6]oxazacycloundecino[8,7,6-hi]indole-8-carboxylic acid-N-ethylethanamine Salt (Enantiomer 2)]: the IC50 in the data set on A2780 was 2.75e-05 M; in the data set on SUDHL10 [1] (5 h incubation) it was over 3.3e-05 M; in the data set on SUDHL5 [2] (72 h incubation), 1.17e-05 M; with SUDHL5 [4] (5 h incubation), 2.93e-05 M; with SUDHL10 [5] (Homo sapiens, SU-DHL10, 72 h, 72 h incubation), 6.35e-06 M; at MCL-1, 0.637 µM. For the same compound, the EC50 with SUDHL10 [3] and in the data set with SUDHL5 [6] was over 33 µM throughout.
For the compound `Cn1nc(CN2CC(F)(F)C2)c2c1COCCCCn1c(C(=O)O)c(CCCOc3cccc4ccccc34)c3cccc-2c31` (single isomer, unassigned; enantiomer 2) [Example 182, 3-[(3,3-difluoroazetidin-1-yl)methyl]-1-methyl-7-[3-(naphthalen-1-yloxy)propyl]-1,10,11,12,13,15-hexahydropyrazolo[4′,3′:9,10][1,6]oxazacycloundecino[8,7,6-hi]indole-8-carboxylic acid-N-ethylethanamine Salt (Enantiomer 2)], the IC50 was 1.75e-05 M in the data set on A2780; over 3.3e-05 M with SUDHL10 [1] (5 h incubation); 1.91e-05 M in the data set with SUDHL5 [2] (72 h incubation); over 3.3e-05 M with SUDHL5 [4] (5 h incubation); 6.02e-06 M with SUDHL10 [5] (72 h incubation); 0.122 µM against MCL-1. For the same compound, the EC50 in the data set with SUDHL10 [3] and in the data set on SUDHL5 [6] was over 33 µM throughout.
On to `COCc1nn(C)c2c1-c1cccc3c(CCCOc4cccc5ccccc45)c(C(=O)O)n(c13)CCCCN(C)C2` (single isomer, unassigned; enantiomer 2) [Example 185, 3-(methoxymethyl)-1,14-dimethyl-7-[3-(naphthalen-1-yloxy)propyl]-10,11,12,13,14,15-hexahydro-1H-pyrazolo[3′,4′:8,9][1,6]diazacycloundecino[10,11,1-hi]indole-8-carboxylic acid —N-ethylethanamine Salt (Enantiomer 2)], for which the IC50 was 1.88e-05 M in the data set with A2780; over 3.3e-05 M with SUDHL10 [1] (5 h incubation); 1.98e-05 M with SUDHL5 [2] (72 h incubation); 2.75e-05 M with SUDHL5 [4] (5 h incubation); 8.53e-06 M in the data set on SUDHL10 [5] (72 h incubation); 0.211 µM against MCL-1. For the same compound, the EC50 with SUDHL10 [3] and with SUDHL5 [6] was over 33 µM each time.
Turning to `CCCc1nn(C)c2c1-c1c(C)ccc3c(CCCOc4cccc5ccccc45)c(C(=O)O)n(c13)CCCCOC2` (single isomer, unassigned; enantiomer 2) [Example 189, 1,4-dimethyl-7-[3-(naphthalen-1-yloxy)propyl]-3-propyl-1,10,11,12,13,15-hexahydropyrazolo[4′3′:9,10][1,6]oxazacycloundecino[8,7,6-hi]indole-8-caboxylic acid-N-ethylethanamine Salt (Enantiomer 2)], the IC50 in the data set with A2780 is 1.78e-05 M; in the data set on SUDHL10 [1] (5 h incubation), over 3.3e-05 M; in the data set on SUDHL5 [2] (72 h incubation), 1.09e-05 M; in the data set on SUDHL5 [4] (5 h incubation), 2.86e-05 M; in the data set on SUDHL10 [5] (72 h incubation), 2.01e-05 M; on MCL-1, 0.142 µM. The 50% effective concentration (EC50) with SUDHL10 [3] and in the data set on SUDHL5 [6] was over 33 µM each time.
As for `Cc1c2c(nn1C)CCCCCCn1c(C(=O)O)c(CCCOc3cccc4ccccc34)c3cccc-2c31` (single isomer, unassigned; enantiomer 2) [Example 192, 2,3-dimethyl-7-[3-(1-naphthyloxy)propyl]-10,11,12,13,14,15-hexahydro-2H-pyrazolo[4′,3′:4,5]azacycloundecino[3,2,1-hi]indole-8-carboxylic acid-N-ethylethanamine Salt (Enantiomer 2)], the IC50 is 1.8e-05 M in the data set on A2780; over 3.3e-05 M in the data set with SUDHL10 [1] (5 h incubation); 2.03e-05 M in the data set with SUDHL5 [2] (72 h incubation); over 3.3e-05 M in the data set on SUDHL5 [4] (5 h incubation); 9.22e-06 M with SUDHL10 [5] (72 h incubation); 0.123 µM against MCL-1. In addition, the EC50 in the data set on SUDHL10 [3] and with SUDHL5 [6] was over 33 µM in each case.
With `Cn1nc2c(c1C(F)(F)F)-c1cccc3c(CCCOc4cccc5ccccc45)c(C(=O)O)n(c13)CCCCOC2` (single isomer, unassigned; enantiomer 2) [Example 195, 2-methyl-7-[3-(naphthalen-1-yloxy)propyl]-3-(trifluoromethyl)-2,10,11,12,13,15-hexahydropyrazolo[4′,3′:9,10][1,6]oxazacycloundecino[8,7,6-hi]indole-8-carboxylic Acid (Enantiomer 2)], the IC50 is 1.27e-05 M in the data set with A2780; over 3.3e-05 M in the data set with SUDHL10 [1] (5 h incubation); 5.84e-06 M in the data set with SUDHL5 [2] (72 h incubation); over 3.3e-05 M with SUDHL5 [4] (5 h incubation); 1.32e-05 M in the data set on SUDHL10 [5] (72 h incubation); 0.0532 µM against MCL-1. Besides, the EC50 with SUDHL10 [3] and in the data set with SUDHL5 [6] was over 33 µM throughout.
In the case of `CCCc1nn(C)c2c1-c1c(C)ccc3c(CCCOc4cccc5ccccc45)c(C(=O)O)n(c13)CCCN(C)C2` (single isomer, unassigned; enantiomer 2) [Example 197, 7,9,12-trimethyl-1-[3-(naphthalen-1-yloxy)propyl]-1-propyl-4,5,6,7,8,9-hexahydropyrazolo[3′,4′:7,8][1,5]diazecino[9,10,1-hi]indole-2-carboxylic acid-N-ethylethanamine Salt (Enantiomer 2)], the IC50 in the data set on A2780 amounted to 1.49e-05 M; with SUDHL10 [1] (5 h incubation) it was 1.55e-05 M; in the data set on SUDHL5 [2] (72 h incubation) it was 1.78e-05 M; in the data set on SUDHL5 [4] (5 h incubation) it was 1.93e-05 M; in the data set with SUDHL10 [5] (72 h incubation), 8.15e-06 M; at MCL-1, 0.104 µM. For the same compound, the EC50 in the data set with SUDHL10 [3] was over 33 µM; with SUDHL5 [6], 28.7 µM.
Regarding `CCc1nn(CCN2CCOCC2)c2c1-c1cccc3c(CCCOc4cccc5ccccc45)c(C(=O)O)n(c13)CCCCOC2` (single isomer, unassigned; enantiomer 2) [Example 200, 3-ethyl-1-[2-(morpholin-4-yl)ethyl]-7-[3-(naphthalen-1-yloxy)propyl]-1,10,11,12,13,15-hexahydropyrazolo[4′3′:9,10][1,6]oxazacycloundecino[8,7,6-hi]indole-carboxylic Acid (Enantiomer 2)], the IC50 in the data set on A2780 turned out to be 2.57e-05 M; with SUDHL10 [1] (5 h incubation), 1.99e-05 M; in the data set with SUDHL5 [2] (72 h incubation), 1.87e-05 M; in the data set with SUDHL5 [4] (5 h incubation), 2.41e-05 M; with SUDHL10 [5] (72 h incubation), 1.12e-05 M; against MCL-1, 0.0248 µM. For the same compound, the EC50 in the data set on SUDHL10 [3] was 18.8 µM; in the data set on SUDHL5 [6] it was over 33 µM.
Regarding `COc1ccc(OCc2nn(C)c3c2-c2cccc4c(CCCOc5cccc6ccccc56)c(C(=O)O)n(c24)CCCCOC3)cc1` (single isomer, unassigned; enantiomer 2) [Example 321, 3-[(4-methoxyphenoxy)methyl]-1-methyl-7-[3(naphthalen-1 yloxy)propyl]-1,10,11,12,13,15-hexahydropyrazolo[4′,3′:9,10][1,6]oxazacycloundecino[8,7,6-hi]indole-8-carboxylic acid-N-ethylethanamine Salt (Enantiomer 2)], the IC50 in the data set with A2780 came out at 1e-05 M; with SUDHL10 [1] (5 h), 2.56e-05 M; with SUDHL5 [2] (72 h), 1.22e-05 M; with SUDHL5 [4] (5 h), 2.97e-05 M; in the data set on SUDHL10 [5] (72 h) it was 4.61e-06 M; against MCL-1 it was 0.639 µM. Also, the EC50 in the data set with SUDHL10 [3] is over 33 µM; in the data set with SUDHL5 [6], 30.3 µM.
